Reference: patent US5559028A, “Methods of enhancing or antigen presentation to T cells inhibiting” (Antigen Express, Inc., priority 1993, dated 1996)
Where no end group is shown, it is not given here.

How the values were obtained:
cathepsin D [1] = assay: Cathepsin D digestion of wild type and mutant Ii in trimers with HLA-DR1 α,β chains (SDS-PAGE of fragments); assay type: biochemical; settings: pH 5.0, 30 min, room temperature, Jesthom microsomal membrane proteins
Protocol: The lowest level of cathepsin D seen to cleave Ii was 0.1 U/ml. Solubilized microsomal membrane proteins from [^35 S]methionine-labeled Jesthom cells were treated with the cathepsin D (concentrations 0, 0.01, 0.05, 0.1, 0.5, 2.5, 10.0 U/ml) at pH 5.0 for 30 min at room temperature. At the end of the incubation, the enzyme was inactivated and immunoprecipitates with anti-class II mAb, IVA12 or with anti-Ii mAb, VIC-Y1 were formed. The immunoprecipitated samples were analyzed by SDS-PAGE and autoradiography. In a second experiment, when the lowest level of cathepsin D (0.1 U/ml) seen to cleave Ii was added to the assay for peptide binding in the presence of varying concentrations of cathepsin B (0.02-0.5 U/ml), the net level of peptide binding was enhanced about 3 times that seen without cathepsin D, as judged by densitometry of the autoradiographs. For this experiment iodinated HSAB-MA(18-29) peptide and unradiolabeled microsomal membranes were incubated with or without 0.1 U/ml cathepsin D for 10 min or 30 min in the presence of varying amounts of cathepsin B (0.02, 0.1, or 0.5 U/ml). After subsequent photoactivation and immunoprecipitation with anti-class II mAb, the samples were subjected to SDS-PAGE and autoradiography.
CD digestions were carried out according to Reyes et al. (1991). […]

[2] = system: E^k -restricted murine T cell hybridoma, TPc9.1; assay: Enhancement of presentation of pigeon cytochrome C(81-104) by fixed CH27 cells to TPc9.1 T hybridoma (IL-2/IL-4, HT-2 indicator); assay type: cell-based
Protocol: The assay was carried out as follows. 5×10^4 paraformaldehyde-fixed CH27 B lymphoma cells (antigen presenting cells) were incubated in 96-well plates with 5×10^4 TPc9.1 T hybridoma cells (irradiated 2200 rads) for 24 hrs in the presence of: no peptides, 50 μM Ii peptide only, 6 μM pigeon cytochrome C(81-104) peptide only, and 50 μM Ii peptide plus 6 μM pigeon cytochrome C(81-104) peptide. Each condition was assayed in sextuplet. After incubation, the response of the T cell hybridoma was determined by measuring the IL-2/IL-4 secreted during the 24 hr culture. The supernatants were collected and were tested for IL-2/IL-4 content by the ability to support the growth of the IL-2/ IL-4-dependent cell line HT-2 as measured by [^3 H]thymidine incorporation. The values presented in Table V are the CPM×10^-3 incorporated in the HT-2 indicator assay.
The enhancement of responses to pigeon cytochrome C peptide (81-104) by Ii (148-164) and Ii (78-92) was assayed as a function of concentration of the added Ii peptide (Table VI). The values in the Table represent the % enhancement of the pigeon cytochrome C(81-104) peptide-specific, E^k -restricted response by the TPc9.1 murine T cell hybridoma (T) to the peptide presented by paraformaldehyde-fixed CH27 B lymphoma cells (APC). Culture supernatants were collected and were tested for IL-2/IL-4 content by the ability to support the growth of the Il-2/IL-4-dependent cell Line HT-2 as measured by the incorporation of [^3 H]thymidine. The % enhancement was calculated as: [(CPM of T+APC+peptide+Ii peptide / CPM of T+APC+peptide)×100]-100.

cathepsin D [3] = molecular target: cathepsin D (Homo sapiens, UniProt P07339); settings: cited from earlier work
Chain of cathepsin D (Homo sapiens, UniProt P07339) (P07339 65-412, species assumed): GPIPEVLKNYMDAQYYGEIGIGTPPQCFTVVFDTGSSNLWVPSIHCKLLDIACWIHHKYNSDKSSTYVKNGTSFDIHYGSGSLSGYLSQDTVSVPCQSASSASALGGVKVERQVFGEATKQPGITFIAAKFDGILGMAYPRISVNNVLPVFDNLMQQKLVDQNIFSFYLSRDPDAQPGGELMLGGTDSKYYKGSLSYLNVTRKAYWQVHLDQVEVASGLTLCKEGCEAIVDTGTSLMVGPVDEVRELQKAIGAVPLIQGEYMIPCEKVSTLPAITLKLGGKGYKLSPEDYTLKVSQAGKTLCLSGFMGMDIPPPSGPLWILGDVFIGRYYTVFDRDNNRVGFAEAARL

Ii = settings: cited from earlier work
cathepsin B = cathepsin B (Homo sapiens, UniProt P07858); settings: cited from earlier work

Molecule	lowest level of cathepsin D seen to cleave Ii (cathepsin D [1]) [U/ml]	% enhancement of the pigeon cytochrome C(81-104) peptide-specific response ([2]; Ii peptide 1 μM) [%]	% enhancement of the pigeon cytochrome C(81-104) peptide-specific response ([2]; Ii peptide 10 μM) [%]	% enhancement of the pigeon cytochrome C(81-104) peptide-specific response ([2]; Ii peptide 50 μM) [%]	% enhancement of the pigeon cytochrome C(81-104) peptide-specific response ([2]; Ii peptide 100 μM) [%]	inhibition of cathepsin D (cathepsin D [3])	antigen charging in vitro (Ii)	final proteolysis of Ii (Ii)	inhibition of cathepsin B (cathepsin B)
cathepsin D: aspartyl protease	0.1	–	–	–	–	–	–	–	–
ENLRHLKNTMETLDWKV [Ii (148-164), ENLRHLKNTMETLDWKV]	–	0	19	91	140	–	–	–	–
YRMKLPKPPKPVSKMR [Ii (78-92), YRMKLPKPPKPVSKMR]	–	40	101	187	170	–	–	–	–
CC(=O)N[C@@H](CC(C)C)C(=O)N[C@@H](CC(C)C)C(=O)N[C@H](C=O)CCCNC(=N)N [leupeptin]	–	–	–	–	–	not	blocks antigen charging in vitro	limits the final proteolysis of Ii to p21 and p14 fragments	inhibited
